Several values for one entry are separate records, joined by “and”; a condition that tells them apart may be missing. Equal entries are not always repeated. Where two headings read alike, the source gives them in different places.
Legend:
[1] = Pharmacokinetic studies in rat (i.v.); assay type: in vivo; details: I-19 1.2 mg/kg i.v., rat plasma, 1.2 mg/kg; for AUC(0-t): read-out: AUC0-tlast; for half-life: read-out: Apparent t1/2 (converted)
Summary of the method: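 Male Sprague-Dawley rats (~225-350 g) received compounds intravenously via tail vein in 5% Tween-80 in saline. Saphenous blood was sampled at 0.25, 1 and 4 h and analysed by LC-MS/MS. t1/2 and AUC0-tlast came from non-compartmental analysis using the linear up/log down trapezoidal rule.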

[2] = Human liver microsomes stability; assay type: in vitro ADME; details: Human liver microsomes
Summary of the method: (§1)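 Parent depletion was measured by LC-MS/MS as peak-area ratio to internal standard. Compounds (2 μM) were incubated at 37° C with liver microsomes of each species and 1 mM NADPH, then sampled to 60 min. Intrinsic clearance in μL/min/mg protein derives from the log-linear slope.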

[3] = Rat liver microsomes stability; assay type: in vitro ADME; details: Rat liver microsomes
Summary of the method: as §1

[4] = Mouse liver microsomes stability; assay type: in vitro ADME; details: Mouse liver microsomes
[5] = male, 2 μM compound, 0.5 mg/mL microsomes, 1 mM NADPH, 37° C
[6] = male, read-out: Scaled-up CLint

With CSc1ccc2[nH]cc(CCN(C)C(C)C)c2c1 [Compound I-19, N-Methyl-N-(2-(5-(methylthio)-1H-indol-3-yl)ethyl)propan-2-amine] as the compound, how does the “Plasma concentration” value ([1]; 0.25 h, individual rats R07-R09) read?
The value was 0.0134 µg/mL and 0.0703 µg/mL and 0.0844 µg/mL.

What about the “Plasma concentration” value ([1]; 1 h, individual rats R07-R09) of the same compound?
The value was 0.0344 µg/mL and 0.0414 µg/mL.

And the “Plasma concentration” value ([1]; 4 h, individual rats R07-R09)?
Its value is 0.00495 µg/mL and 0.00434 µg/mL.

And the “AUC0-tlast” value ([1]; individual rats R07-R09)?
The value was 0.103 µg·h/mL and 0.118 µg·h/mL.

And the “Apparent t1/2” value ([1]; individual rats R07-R09, estimated from 2 points only)?
Its value is 53.3 min.

What about the concentration at 0.25 h ([1]; male, Sprague-Dawley, rat, plasma, iv, 0.25 h, Mean ± SD, read-out: Plasma concentration) of the same compound?
The concentration at 0.25 h was 0.056 ± 0.0376 µg/mL.

What about the concentration at 1 h ([1]; male, Sprague-Dawley, rat, plasma, iv, 1 h, Mean ± SD, read-out: Plasma concentration) of the same compound?
Its concentration at 1 h is 0.0354 ± 0.00557 µg/mL.

And the concentration at 1 h ([1]; male, Sprague-Dawley, rat, plasma, iv, 1 h, individual rats R07-R09, read-out: Plasma concentration)?
Its concentration at 1 h is 0.0304 µg/mL.

And the concentration at 4 h ([1]; male, Sprague-Dawley, rat, plasma, iv, 4 h, Mean ± SD, read-out: Plasma concentration)?
The concentration at 4 h was 0.00535 ± 0.00126 µg/mL.

And the concentration at 4 h ([1]; male, Sprague-Dawley, rat, plasma, iv, 4 h, individual rats R07-R09, read-out: Plasma concentration)?
Its concentration at 4 h is 0.00676 µg/mL.

And the AUC(0-t) ([1]; male, Sprague-Dawley, rat, plasma, iv, Mean ± SD)?
The AUC(0-t) was 0.0961 ± 0.0264 µg·h/mL.

And the half-life ([1]; male, Sprague-Dawley, rat, plasma, iv, individual rats R07-R09, estimated from 2 points only)?
The half-life was 60 min.

And the AUC(0-t) ([1]; male, Sprague-Dawley, rat, plasma, iv, individual rats R07-R09)?
Its AUC(0-t) is 0.0669 µg·h/mL.

What about the half-life ([1]; male, Sprague-Dawley, rat, plasma, iv, mean (n = 2), estimated from 2 points only) of the same compound?
Its half-life is 56.8 min.

And the “Predicted hepatic CL” value [2]?
Its value is 1.016 L/h/kg.

And the half-life at 2 μM ([2]; 2 μM compound, 0.5 mg/mL microsomes, 1 mM NADPH, 37° C)?
The half-life at 2 μM was 18.7 min.

And the microsomal CLint at 2 μM ([2]; 2 μM compound, 0.5 mg/mL microsomes, 1 mM NADPH, read-out: CLint (μL/min/mg protein))?
The microsomal CLint at 2 μM was 74.1 µL/min/mg.

What about the CLint scaled at 2 μM ([2]; read-out: Scaled-up CLint) of the same compound?
Its CLint scaled at 2 μM is 5.58 L/h/kg.

And the “Predicted hepatic CL” value [3]?
Its value is 1.004 L/h/kg.

What about the microsomal CLint at 2 μM ([3]; male, rat, liver microsomes, 2 μM compound, 0.5 mg/mL microsomes, 1 mM NADPH, read-out: CLint (μL/min/mg protein)) of the same compound?
The microsomal CLint at 2 μM was 13.4 µL/min/mg.

What about the half-life at 2 μM [3, 5] of the same compound?
The half-life at 2 μM was 103 min.

And the CLint scaled at 2 μM [3, 6]?
The CLint scaled at 2 μM was 1.44 L/h/kg.

And the “Predicted hepatic CL” value [4]?
Its value is 4.702 L/h/kg.

And the microsomal CLint at 2 μM ([4]; male, mouse, liver microsomes, 2 μM compound, 0.5 mg/mL microsomes, 1 mM NADPH, read-out: CLint (μL/min/mg protein))?
Its microsomal CLint at 2 μM is 138 µL/min/mg.

What about the half-life at 2 μM [4, 5] of the same compound?
The half-life at 2 μM was 10 min.

What about the CLint scaled at 2 μM [4, 6] of the same compound?
The CLint scaled at 2 μM was 36.3 L/h/kg.

Reference: patent US20250257034A1, “INDOLE DERIVATIVES AS SEROTONERGIC AGENTS USEFUL FOR THE TREATMENT OF DISORDERS RELATED THERETO” (priority 2023, published 2025)
